# Results as given in patent US10519152B2, “Compounds and their use in treating cancer” (AstraZeneca AB, priority 2017, dated 2019).
# Counter-ions that a name gives are not always drawn.
# Biological target: T1, recombinant human Estrogen Receptor alpha ligand binding domain, residues 307-554 (ER alpha-LBD (GST)) (Homo sapiens, UniProt P03372)
# T1 construct: made in house
# T1 sequence (P03372 307-554): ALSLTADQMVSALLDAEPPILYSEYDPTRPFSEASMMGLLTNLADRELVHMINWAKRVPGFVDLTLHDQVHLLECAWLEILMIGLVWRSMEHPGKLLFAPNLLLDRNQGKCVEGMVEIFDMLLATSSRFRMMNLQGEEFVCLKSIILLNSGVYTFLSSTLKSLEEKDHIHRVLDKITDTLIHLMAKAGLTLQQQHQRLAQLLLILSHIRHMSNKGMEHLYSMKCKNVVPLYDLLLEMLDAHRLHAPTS
# Test: ERα binding assay (LanthaScreen TR-FRET competition)
# Settings: TR-FRET competition with Fluormone ES2 tracer, 4 hours at room temperature; single experiment or average of two or more
row,SMILES,IC50
1,"Cc1ncsc1-c1ccc(CNC(=O)[C@@H]2C[C@@H](O)CN2C(=O)[C@@H](NC(=O)COCCOCCOCCCCNC(=O)c2cc(F)c([C@@H]3c4[nH]c5ccccc5c4C[C@@H](C)N3CC(C)(C)F)c(F)c2)C(C)(C)C)cc1 [Example 83, (2S,4R)-1-((S)-17-(tert-Butyl)-1-(3,5-difluoro-4-((1R,3R)-2-(2-fluoro-2-methylpropyl)-3-methyl-2,3,4,9-tetrahydro-1H-pyrido[3,4-b]indol-1-yl)phenyl)-1,15-dioxo-7,10,13-trioxa-2,16-diazaoctadecan-18-oyl)-4-hydroxy-N-(4-(4-methylthiazol-5-yl)benzyl)pyrrolidine-2-carboxamide]",1100 pM
2,"Cc1ncsc1-c1ccc(CNC(=O)[C@@H]2C[C@@H](O)CN2C(=O)[C@@H](NC(=O)COCCOCCOCCNC(=O)c2cc(F)c([C@@H]3c4[nH]c5ccccc5c4C[C@@H](C)N3CC(C)(C)F)c(F)c2)C(C)(C)C)cc1 [Example 91, (2S,4R)-1-((S)-15-(tert-Butyl)-1-(3,5-difluoro-4-((1R,3R)-2-(2-fluoro-2-methylpropyl)-3-methyl-2,3,4,9-tetrahydro-1H-pyrido[3,4-b]indol-1-yl)phenyl)-1,13-dioxo-5,8,11-trioxa-2,14-diazahexadecan-16-oyl)-4-hydroxy-N-(4-(4-methylthiazol-5-yl)benzyl)pyrrolidine-2-carboxamide]",1300 pM
3,"Cc1ncsc1-c1ccc(CNC(=O)[C@@H]2C[C@@H](O)CN2C(=O)[C@@H](NC(=O)COCCOCCCCCOc2cc(F)c([C@@H]3c4[nH]c5ccccc5c4C[C@@H](C)N3CC(C)(C)F)c(F)c2)C(C)(C)C)cc1 [Example 97, (2S,4R)-1-((S)-2-(2-(2-((5-(3,5-Difluoro-4-((1R,3R)-2-(2-fluoro-2-methylpropyl)-3-methyl-2,3,4,9-tetrahydro-1H-pyrido[3,4-b]indol-1-yl)phenoxy)pentyl)oxy)ethoxy)acetamido)-3,3-dimethylbutanoyl)-4-hydroxy-N-(4-(4-methylthiazol-5-yl)benzyl)pyrrolidine-2-carboxamide]",500 pM
4,"Cc1ncsc1-c1ccc(CNC(=O)[C@@H]2C[C@@H](O)CN2C(=O)[C@@H](NC(=O)COCCOCCOCCOc2cc(F)c([C@@H]3c4[nH]c5ccccc5c4C[C@@H](C)N3CC3(F)CC3)c(F)c2)C(C)(C)C)cc1 [Example 77, (2S,4R)-1-((S)-2-(tert-Butyl)-14-(3,5-difluoro-4-((1R,3R)-2-((1-fluorocyclopropyl)methyl)-3-methyl-2,3,4,9-tetrahydro-1H-pyrido[3,4-b]indol-1-yl)phenoxy)-4-oxo-6,9,12-trioxa-3-azatetradecanoyl)-4-hydroxy-N-(4-(4-methylthiazol-5-yl)benzyl)pyrrolidine-2-carboxamide]",2600 pM
5,"Cc1ncsc1-c1ccc(CNC(=O)[C@@H]2C[C@@H](O)CN2C(=O)[C@@H](NC(=O)COCCCOCCOc2cc(F)c([C@@H]3c4[nH]c5ccccc5c4C[C@@H](C)N3CC(F)(F)F)c(F)c2)C(C)(C)C)cc1 [Example 94, (2S,4R)-1-((S)-2-(2-(3-(2-(3,5-Difluoro-4-((1R,3R)-3-methyl-2-(2,2,2-trifluoroethyl)-2,3,4,9-tetrahydro-1H-pyrido[3,4-b]indol-1-yl)phenoxy)ethoxy)propoxy)acetamido)-3,3-dimethylbutanoyl)-4-hydroxy-N-(4-(4-methylthiazol-5-yl)benzyl)pyrrolidine-2-carboxamide]",900 pM
6,"Cc1ncsc1-c1ccc(CNC(=O)[C@@H]2C[C@@H](O)CN2C(=O)[C@@H](NC(=O)COCCOCCOCCOCC(=O)Nc2cc(F)c([C@@H]3c4[nH]c5ccccc5c4C[C@@H](C)N3CC(C)(C)F)c(F)c2)C(C)(C)C)cc1 [Example 68, N1-(3,5-difluoro-4-((1R,3R)-2-(2-fluoro-2-methylpropyl)-3-methyl-2,3,4,9-tetrahydro-1H-pyrido[3,4-b]indol-1-yl)phenyl)-N14-((S)-1-((2S,4R)-4-hydroxy-2-((4-(4-methylthiazol-5-yl)benzyl)carbamoyl)pyrrolidin-1-yl)-3,3-dimethyl-1-oxobutan-2-yl)-3,6,9,12-tetraoxatetradecanediamide]",1000 pM
7,"Cc1ncsc1-c1ccc(CNC(=O)[C@@H]2C[C@@H](OC(=O)[C@H](C)NC(=O)[C@@H](N)C(C)C)CN2C(=O)[C@@H](NC(=O)COCCOCCOCCOc2cc(F)c([C@@H]3c4[nH]c5ccccc5c4C[C@@H](C)N3CC(C)(C)F)c(F)c2)C(C)(C)C)cc1 [Example 100, (3R,5S)-1-((S)-2-(2-(2-(2-(2-(3,5-Difluoro-4-((1R,3R)-2-(2-fluoro-2-methylpropyl)-3-methyl-2,3,4,9-tetrahydro-1H-pyrido[3,4-b]indol-1-yl)phenoxy)ethoxy)ethoxy)ethoxy)acetamido)-3,3-dimethylbutanoyl)-5-((4-(4-methylthiazol-5-yl)benzyl)carbamoyl)pyrrolidin-3-yl L-valyl-L-alaninate Formate]",800 pM
8,"Cc1ncsc1-c1ccc(CNC(=O)[C@@H]2C[C@@H](O)CN2C(=O)[C@@H](NC(=O)CCCCNC(=O)/C=C/c2cc(F)c([C@@H]3c4[nH]c5ccccc5c4C[C@@H](C)N3CC(C)(C)F)c(F)c2)C(C)(C)C)cc1 [Example 60, (2S,4R)-1-((S)-2-(5-((E)-3-(3,5-difluoro-4-((1R,3R)-2-(2-fluoro-2-methylpropyl)-3-methyl-2,3,4,9-tetrahydro-1H-pyrido[3,4-b]indol-1-yl)phenyl)acrylamido)pentanamido)-3,3-dimethylbutanoyl)-4-hydroxy-N-(4-(4-methylthiazol-5-yl)benzyl)pyrrolidine-2-carboxamide, Trifluoroacetic Acid]",700 pM
